Experimental data published in the supplement of paper PMC10307832.

How the values were obtained:
Assay in all cases: relative viability (nuclei count vs DMSO), 5 days (fraction); higher = more cells survive
FH535 = compound: CC1=C(C=CC(=C1)[N+](=O)[O-])NS(=O)(=O)C2=C(C=CC(=C2)Cl)Cl [FH535]
How it was run: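 After an overnight hold at 37 °C, lung cancer cell lines in 1536-well plates were pinned with five library-drug doses (not always all listed), each √10 from the next, on vehicle-anchored plates. The cells stayed 5 days without fresh medium, then a one-step fix, permeabilisation and Hoechst stain preceded 4× imaging and MetaXpress nuclear counts. A plate passed only with control CV under 25% and at least one doubling. Viability is the median, over plates, of treated-well nuclei relative to vehicle-well nuclei.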

FH535 + Bortezomib = compound: CC1=C(C=CC(=C1)[N+](=O)[O-])NS(=O)(=O)C2=C(C=CC(=C2)Cl)Cl [FH535] + CC(C)C[C@H](NC(=O)[C@H](Cc1ccccc1)NC(=O)c1cnccn1)B(O)O [Bortezomib] (partner 0.002 µM)
How it was run: (§1)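 Relative viability is defined as nuclei in treated wells over nuclei in vehicle wells. Duplicate plates were run and medians reported. Lung cancer cell lines in 1536-well plates were dosed by pin tool one day after seeding, with one drug or with a fixed anchor-drug dose plus five library-drug doses (not always all listed) in √10 steps, and nuclei were counted after 5 days.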

FH535 + Pictilisib = compound: CC1=C(C=CC(=C1)[N+](=O)[O-])NS(=O)(=O)C2=C(C=CC(=C2)Cl)Cl [FH535] + CS(=O)(=O)N1CCN(Cc2cc3nc(-c4cccc5[nH]ncc45)nc(N4CCOCC4)c3s2)CC1 [Pictilisib] (partner 1 µM)
How it was run: as §1

FH535 + Navitoclax = compound: CC1=C(C=CC(=C1)[N+](=O)[O-])NS(=O)(=O)C2=C(C=CC(=C2)Cl)Cl [FH535] + CC1(C)CCC(c2ccc(Cl)cc2)=C(CN2CCN(c3ccc(C(=O)NS(=O)(=O)c4ccc(N[C@H](CCN5CCOCC5)CSc5ccccc5)c(S(=O)(=O)C(F)(F)F)c4)cc3)CC2)C1 [Navitoclax] (partner 0.5 µM)
How it was run: as §1

FH535 + Foretinib = compound: CC1=C(C=CC(=C1)[N+](=O)[O-])NS(=O)(=O)C2=C(C=CC(=C2)Cl)Cl [FH535] + COc1cc2c(Oc3ccc(NC(=O)C4(C(=O)Nc5ccc(F)cc5)CC4)cc3F)ccnc2cc1OCCCN1CCOCC1 [Foretinib] (partner 0.25 µM)
How it was run: as §1

FH535 + Olaparib = compound: CC1=C(C=CC(=C1)[N+](=O)[O-])NS(=O)(=O)C2=C(C=CC(=C2)Cl)Cl [FH535] + O=C(c1cc(Cc2n[nH]c(=O)c3ccccc23)ccc1F)N1CCN(C(=O)C2CC2)CC1 [Olaparib] (partner 8 µM)
How it was run: as §1

FH535 + Lapatinib = compound: CC1=C(C=CC(=C1)[N+](=O)[O-])NS(=O)(=O)C2=C(C=CC(=C2)Cl)Cl [FH535] + CS(=O)(=O)CCNCc1ccc(-c2ccc3ncnc(Nc4ccc(OCc5cccc(F)c5)c(Cl)c4)c3c2)o1 [Lapatinib] (partner 2 µM)
How it was run: as §1

FH535 + Crizotinib = compound: CC1=C(C=CC(=C1)[N+](=O)[O-])NS(=O)(=O)C2=C(C=CC(=C2)Cl)Cl [FH535] + C[C@@H](Oc1cc(-c2cnn(C3CCNCC3)c2)cnc1N)c1c(Cl)ccc(F)c1Cl [Crizotinib] (partner 1 µM)
How it was run: as §1

FH535 + Linsitinib = compound: CC1=C(C=CC(=C1)[N+](=O)[O-])NS(=O)(=O)C2=C(C=CC(=C2)Cl)Cl [FH535] + C[C@]1(O)C[C@@H](c2nc(-c3ccc4ccc(-c5ccccc5)nc4c3)c3c(N)nccn32)C1 [Linsitinib] (partner 1 µM)
How it was run: as §1

FH535 + Alpelisib = compound: CC1=C(C=CC(=C1)[N+](=O)[O-])NS(=O)(=O)C2=C(C=CC(=C2)Cl)Cl [FH535] + Cc1nc(NC(=O)N2CCC[C@H]2C(N)=O)sc1-c1ccnc(C(C)(C)C(F)(F)F)c1 [Alpelisib] (partner 2 µM)
How it was run: as §1

EBC-1
relative viability (FH535; 0.04 µM): 0.924
relative viability (FH535; 0.1265 µM): 0.983
relative viability (FH535; 0.4 µM): 0.989
relative viability (FH535; 1.265 µM): 0.815
relative viability (FH535 + Bortezomib; first compound 0.04 µM): 0.622
relative viability (FH535 + Bortezomib; first compound 0.1265 µM): 0.638
relative viability (FH535 + Bortezomib; first compound 0.4 µM): 0.585
relative viability (FH535 + Bortezomib; first compound 1.265 µM): 0.449
relative viability (FH535 + Pictilisib; first compound 0.04 µM): 0.44
relative viability (FH535 + Pictilisib; first compound 0.1265 µM): 0.289
relative viability (FH535 + Pictilisib; first compound 0.4 µM): 0.402
relative viability (FH535 + Pictilisib; first compound 1.265 µM): 0.383
relative viability (FH535 + Navitoclax; first compound 0.04 µM): 0.364
relative viability (FH535 + Navitoclax; first compound 0.1265 µM): 0.391
relative viability (FH535 + Navitoclax; first compound 0.4 µM): 0.491
relative viability (FH535 + Navitoclax; first compound 1.265 µM): 0.416
relative viability (FH535 + Foretinib; first compound 0.04 µM): 0.114
relative viability (FH535 + Foretinib; first compound 0.4 µM): 0.0911
relative viability (FH535 + Foretinib; first compound 1.265 µM): 0.101
relative viability (FH535 + Olaparib; first compound 0.04 µM): 0.675
relative viability (FH535 + Olaparib; first compound 0.1265 µM): 0.657
relative viability (FH535 + Olaparib; first compound 0.4 µM): 0.712
relative viability (FH535 + Olaparib; first compound 1.265 µM): 0.566
relative viability (FH535 + Lapatinib; first compound 0.04 µM): 0.237
relative viability (FH535 + Lapatinib; first compound 0.1265 µM): 0.209
relative viability (FH535 + Lapatinib; first compound 0.4 µM): 0.196
relative viability (FH535 + Lapatinib; first compound 1.265 µM): 0.151
relative viability (FH535 + Crizotinib; first compound 0.04 µM): 0.178
relative viability (FH535 + Crizotinib; first compound 0.1265 µM): 0.182
relative viability (FH535 + Crizotinib; first compound 0.4 µM): 0.192
relative viability (FH535 + Crizotinib; first compound 1.265 µM): 0.178
relative viability (FH535 + Linsitinib; first compound 0.04 µM): 0.854
relative viability (FH535 + Linsitinib; first compound 0.1265 µM): 0.899
relative viability (FH535 + Linsitinib; first compound 0.4 µM): 0.91
relative viability (FH535 + Linsitinib; first compound 1.265 µM): 0.646
relative viability (FH535 + Alpelisib; first compound 0.04 µM): 0.737
relative viability (FH535 + Alpelisib; first compound 0.1265 µM): 0.82
relative viability (FH535 + Alpelisib; first compound 0.4 µM): 0.868
relative viability (FH535 + Alpelisib; first compound 1.265 µM): 0.816
